Legend:
[1] = system: U937 (human leukaemia cells); assay: Antiproliferative activity (CCK-8 assay); type: cell-based; settings: U-937, mean ± SD, three separated experiments, 72 h
Procedure: MCF-7, MGC-803, Hela and HepG-2 cell lines were cultured in a base medium (90% DMEM and 10% FBS), A549 and U937 were cultured in a base medium (90% PRMI-1640 and 10% FBS) at 37 °C, 5% CO2 and a saturated humidity atmosphere. All the mediums were supplemented with 10% FBS and 1% […]/streptomycin (all cells were purchased from Shanghai Institutes for Biological Sciences, Chinese Academy of Sciences, Shanghai, China).
MGC-803 cells were collected and seeded into 96 well plates at a density of 8000/well. The mediums containing drugs and cell suspension were added into the well. The cells were incubated in 5% CO2 incubator at 37 °C for 72 h. Each well was added 10 µL CCK8 solution, and the incubation time was 3–4 h. The absorbance value at 450 nm was measured by microplate reader. Data are calculated with GraphPad Prism5 software.

[2] = system: human normal cells (LO2, 293T, macrophage) versus MGC-803; assay: Selectivity of growth inhibition, human normal cells versus MGC-803; type: cell-based
Procedure: The effect of compound 4c on three types of normal human cell lines including LO2 (human hepatocyte cells), 293 T (human embryonic kidney cell) and THP-1-derived macrophages was then determined.

[3] = system: MGC-803 cells; assay: Cell cycle distribution (PI, flow cytometry); type: cell-based, human
From the text: Most inhibitors of microtubule polymerisation are able to block mitosis in G2/M phase, which ultimately leads to apoptosis by disrupting tubulin-microtubule balance. To elucidate whether the cytotoxicity of 4c was due to cell cycle arrest, flow cytometry analysis and PI marking method were used to evaluate the effects of 4c on the MGC-803 cell cycle distribution. […] A significant difference was also observed when we further evaluated its effects using different time points (Figure 5(C,D)). MGC-803 cells treated with 4c (36 nM) can be arrested in the G2/M phase from 30.37% at 6 h to 45.37% at 24 h.
MGC-803 cells (15 × 10^4 cells/well) were inoculated in 6-well plates and incubated at 37 °C for 24 h, and then treated with 4c (18, 36, 72nΜ). The collected cells were washed with cold PBS and then fixed in 75% ethanol in PBS at −20 °C overnight. The cells were then washed twice with PBS buffer and then stained with 500 μL of […] (PI, 5 mg) staining solution […] for 15 min in the dark. Samples were immediately assayed for DNA content using a flow cytometer (Becton, Dickinson and Company, USA). The percentage of cell cycle phases was analysed by the software provided in the instrument.

[4] = system: MGC-803 cells; assay: Cell apoptosis assay (Annexin V/PI, flow cytometry); type: cell-based, human; settings: 48 h, control 1.99%
Procedure: According to above-mentioned cell cycle analysis, we suppose that 4c might induce cells apoptosis, like other microtubule polymerisation inhibitors. Thus, the effects of 4c on MGC-803 cell apoptosis were examined by flow cytometry.
MGC-803 cells at 8 × 10^4 cells/well were seeded in 12-well cell culture plates overnight, and then the cultured cells were incubated with a dose range of compounds 4c for 48 h. The treated or untreated cells were washed twice with PBS and stained by Annexin V-PE and PI for 15 min without light exposure according to the manufacturer’s protocol. Apoptosis was quantified using a flow cytometer (Becton, Dickinson and Company, USA).

[5] = system: MMP of MGC-803 cells; assay: Mitochondrial membrane potential (JC-1, flow cytometry); type: cell-based, human; settings: 72 nM, 48 h
Procedure: There is a close relationship between mitochondria and apoptosis, and a decrease in mitochondrial membrane potential is one of the irreversible events that occur early in apoptosis cells. Therefore, effect of compound 4c on MMP of MGC-803 cells was examined by cationic JC-1 staining method and flow cytometry.
The cultured cells were spread in 6-well plates with about 1.5 × 10^5 cells per well and incubated overnight at 37 °C. Different concentrations of the 4c were added to the wells, and the incubation was continued for 48 h. The wells were washed twice with JC-1 staining buffer (1×) after resuspension with an appropriate amount of JC-1 staining buffer (1×), flow cytometry assays were performed according to standard procedures

[6] = system: ROS in MGC-803 cells; assay: Intracellular ROS generation (DCFH-DA, flow cytometry); type: cell-based, human; settings: 72 nM, 48 h, control 0.17%
Procedure: It is now generally accepted that mitochondrial dysfunction is the main source of elevated ROS levels, accompanied by changes in mitochondrial membrane potential and activation of downstream Caspases. To further evaluate the alterations of intracellular ROS levels after cells exposed to 4c, flow cytometry was analysed with 2′,7′-Dichlorodihydrofluorescein diacetate (DCFH-DA) as fluorescent probe. As shown in Figure 7(B), 4c induced intracellular ROS generation in a dose-dependent manner. […] According to above-mentioned results, we can deduce that 4c induced cell apoptosis through a variety of ways including the disruption of the mitochondrial membrane potential, accumulation of intracellular ROS level and regulation of apoptosis-related proteins expression in cancer cells.
Load the probe and dilute DCFH-DA with serum-free culture medium at 1:1000 to a final concentration of […]. Spread the cultured cells in a 6-well plate with about 1.5 × 10^5 cells per well and incubate overnight at 37 °C. After 48 h of incubation with 4c (18, 36, 72nΜ) the cell culture medium was removed and diluted DCFH-DA was added and incubated for 20 min at 37 °C in an incubator, and the mixture was inverted every 3–5 min. […] Add 200 μL of PBS for resuspension, place on ice, and subsequently assay by flow cytometry using standard procedures.

[7] = system: MGC-803 cells; assay: Wound healing migration assay; type: cell-based, human; settings: 72 nM, after 48 h, control approximately 64%
Procedure: Metastasis is one of the leading causes of morbidity and mortality of cancer patients. Microtubules-targeting inhibitors have also been reported to interfere with cell migration and invasion. Accordingly, the in vitro would healing assay and Transwell assays were performed to investigate the inhibitory effect of compound 4c on the migration and invasion of MGC-803 cells. As shown Figure 8(A,C), the scratches healing rate in the control group was approximately 64%. By contrast, the cells treated with 4c have much smaller scratched areas recovery at all concentrations. […] Cell invasion is an important malignant behaviour during cancer metastasis. In Tanswell assay, MGC-803 cells were seeded into upper chambers with pre-coated Matrigel stimulating base membrane in order to assess the cellular invasion.
MGC-803 cells and HUVECs were seeded in 24-well plates and cultivated for 24 h at 37 °C. The cells were scribed vertically with a gun tip and washed with PBS to remove dead cells. The containing different concentrations of 4c were added to the scratched monolayers. The migrated cells were photographed under a light microscope at indicated time points from the scratch. Take a picture and use the image J software to calculate the area of the cell scratches.

SMILES: COc1cc(C(=O)/C(F)=C/c2c[nH]c3cc(Br)ccc23)cc(OC)c1OC [4c, (Z)-3–(6-bromo-1H-indol-3-yl)-2-fluoro-1–(3,4,5-trimethoxyphenyl)prop-2-en-1-one]
- IC50 [1]: 25 ± 1 nM
- selectivity ratio towards MGC-803 cells and macrophage cells [2]: up to 21.2 folds
- percentage of cells in G2/M ([3]; 18 nM, control 32.15%): 50.47%
- percentage of cells in G2/M ([3]; 36 nM, 6 h): 30.37%
- percentage of cells in G2/M ([3]; 36 nM, control 32.15%): 83.65%
- percentage of cells in G2/M ([3]; 72 nM, control 32.15%): 90.21%
- percentage of apoptotic cells ([4]; 18 nM (lowest dose)): 19.12%
- percentage of apoptotic cells ([4]; 72 nM (highest dose)): 57.99%
- JC-1 green fluorescence intensity (lower gate) ([5]; control 7.13): 55.6%
- JC-1 red fluorescence intensity (upper gate) ([5]; control 92.4): 41.3%
- FITC-A+ (ratio of DCF positive cells) [6]: 93.6%
- migration rates (scratch healing) [7]: 10%

Source: publication PMC8741257, “Identification of novel non-toxic and anti-angiogenic α-fluorinated chalcones as potent colchicine binding site inhibitors” (Journal of Enzyme Inhibition and Medicinal Chemistry, 2022)
